This passage reports IC50 and melting point results from PMC11596563, “N-Aryl Benzimidazole and Benzotriazole Derivatives and Their Hybrids as Cytotoxic Agents: Design, Synthesis and Structure–Activity Relationship Studies” (Molecules, 2024).

Usually IC50 stands for the concentration at which inhibition is half-maximal. By melting point is commonly meant the temperature, or range, at which the solid turns liquid.

The test system of series [1] is SH-SY5Y. Briefly: cells. Conditions: Homo sapiens, 24 h, read-out: IC50 of the cytotoxic effect, SH-SY5Y.
Protocol: (§1) At the first stage of biological testing, we studied the effect of the synthesized compounds on the survival of cells of both tumoral and normal origin. […] In our work, the cytotoxic profile of the synthesized molecules was assessed using the MTT test, based on the ability of a colorless tetrazolium salt (3-[4,5-dimethylthiazol-2-yl]-2,5-diphenyltetrazolium bromide, MTT) to be reduced to colored formazan in the presence of the mitochondrial enzymes of living cells. For this purpose, a number of cell lines of tumoral origin (SH-SY5Y, A549, MCF-7 and SW-480), as well as normal origin (Hek-293), were used.
(§2) For the experiments, we used tumor cell cultures SH-SY5Y, human neuroblast-like cells, A549, human lung adenocarcinoma, MCF-7, human mammary adenocarcinoma, SW-480 and human colorectal adenocarcinoma, as well as cells of normal origin obtained from human embryonic kidneys, Hek-293.
(§3) All cells were cultured in the Dulbecco Modified Eagle’s Medium (DMEM) with a high glucose content, 10% fetal bovine serum and 1% penicillin-streptomycin as an antibiotic, in a moist incubator with 5% CO2 at 37°C.
(§4) To measure cellular metabolic activity, a colorimetric analysis was performed using the MTT reagent (3-(4,5–dimethylthiazol-2-yl)-2,5-diphenyltetrazolium bromide), which is an inhibitor of viable cells [73, 74].
(§5) • Briefly, cells in the logarithmic growth phase were digested and resuspended to adjust the cell density. The cells were then seeded in 96-well plates at a density of 10,000 cells per well. After 24 h of the incubation of the cells under the standard conditions described above (for the purpose of cell adhesion), the cells were treated with the synthesized compounds at different concentrations (0.1 to 100 µM) or a vehicle alone as a control (1% DMSO) for 24 h. After the incubation time of the cells with synthesized compounds, 5 mg/mL of MTT was added to the cells and incubated for 2 h at 37 °C. Next, the supernatant was discarded; after that, the formazan crystals were dissolved in a DMSO and the absorbance of each well was measured at 570 nm using a multifunctional microplate reader, Cytation3 (Biotech Tools Inc., Winooski, USA).
Series [2] can be described thus: MTT test, cytotoxic effect on cells of normal origin. The conditions noted are these: human, Hek-293 cells (normal origin), 24 h treatment, 0.1 to 100 µM, normal cells, concentration that causes 50% cell death. Type of series: cell-based, human. In general terms: Tetrazolium assays rely on reduction of a dye to a coloured formazan, in cell work by metabolically active cells.
Protocol: as §1, §2, §3, §4, §5

Series [3] deals with A549. Briefly: MTT test, cytotoxic effect. Type of series: cell-based. Conditions: Homo sapiens, 24 h treatment, 0.1 to 100 µM, concentration that causes 50% cell death.
Protocol: as §1, §2, §3, §4, §5
Series [4] concerns SW-480. Briefly: MTT test, cytotoxic effect. Type of series: cell-based. The conditions noted are these: Homo sapiens, SW480, 24 h treatment, 0.1 to 100 µM, concentration that causes 50% cell death.
Protocol: as §1, §2, §3, §4, §5
Series [5] concerns MCF-7. Briefly: MTT test, cytotoxic effect. Conditions: Homo sapiens, MCF7, 24 h treatment, 0.1 to 100 µM, concentration that causes 50% cell death. Type of series: cell-based.
Protocol: as §1, §2, §3, §4, §5

`O=[N+]([O-])c1cc(Cl)ccc1-n1nnc2ccccc21` [3e, 1-(4-Chloro-2-nitrophenyl)-1H-benzotriazole] had a melting point of 134 to 137 °C. In addition, the IC50 in series [1] was at least 100 µM. For the same compound, the half-maximal inhibitory concentration (IC50) at 24 h in series [2] is at least 100 µM. Also, the IC50 in series [3] was at least 100 µM. The IC50 in series [4] is at least 100 µM. The IC50 in series [5] was at least 100 µM.

`O=[N+]([O-])c1cc(C(F)(F)F)ccc1Nc1cc(Cl)ccc1-n1nnc2ccccc21` [5d, N-[2-(1H-benzotriazol-1-yl)-5-chlorophenyl]-2-nitro-4-(trifluoromethyl)aniline] yielded a melting point of 178 to 181 °C. In series [1], the concentration for half-maximal inhibition (IC50) is at least 100 µM. Besides, in series [2], the concentration for half-maximal inhibition (IC50) at 24 h is at least 100 µM. The same compound registered a 50% inhibitory concentration (IC50) in series [3] of at least 100 µM. For the same compound, the IC50 in series [4] was at least 100 µM. Besides, the IC50 in series [5] is at least 100 µM.

Compound `Nc1cc(Cl)ccc1-n1nnc2ccccc21` [4e, 2-(1H-benzotriazol-1-yl)-5-chloroaniline] returned a melting point of 154 to 156 °C. Moreover, the half-maximal inhibitory concentration (IC50) in series [1] was determined as 99.1 ± 1.47 µM. The 50% inhibitory concentration (IC50) at 24 h in series [2] worked out at 87.4 ± 1.42 µM. This compound had an IC50 in series [3] of 91.87 ± 0.02 µM. The compound also showed a concentration for half-maximal inhibition (IC50) in series [4] of at least 100 µM. The compound further yielded an IC50 in series [5] of 82.48 ± 0.32 µM.

Consider `O=[N+]([O-])c1cc(C(F)(F)F)ccc1Nc1cc(C(F)(F)F)ccc1-n1cnc2ccccc21` [5a, N-[2-(1H-benzimidazol-1-yl)-5-(trifluoromethyl)phenyl]-2-nitro-4-(trifluoromethyl)aniline], for which the melting point was in the range of 180 to 183 °C. Further, the 50% inhibitory concentration (IC50) in series [1] was at least 100 µM. This compound returned an IC50 at 24 h in series [2] of at least 100 µM. This compound yielded a half-inhibitory concentration (IC50) in series [3] of at least 100 µM. The compound further registered an IC50 in series [4] of at least 100 µM. Moreover, the IC50 in series [5] was at least 100 µM.

In the case of `FC(F)(F)c1ccc(-n2nnc3ccccc32)c(-n2cnc3cc(C(F)(F)F)ccc32)c1` [7a, 1-{4-(trifluoromethyl)-2-[5-(trifluoromethyl)-1H-benzimidazol-1-yl]phenyl}-1H-benzotriazole], the melting point lay in the range of 124 to 128 °C. Also, the IC50 in series [1] was at least 100 µM. Further, the concentration for half-maximal inhibition (IC50) at 24 h in series [2] is at least 100 µM. This compound also registered an IC50 in series [3] of at least 100 µM. The compound further displayed an IC50 in series [4] of at least 100 µM. Moreover, in series [5], the IC50 was at least 100 µM.

`O=[N+]([O-])c1cc(C(F)(F)F)ccc1-n1cnc2ccccc21` [3a, 1-(2-Nitro-4-(trifluoromethyl)phenyl)-1H-benzimidazole] displayed a melting point of 130 to 132 °C. Also, the concentration for half-maximal inhibition (IC50) in series [1] amounted to 62.2 ± 0.11 µM. In series [2], this compound showed a 50% inhibitory concentration (IC50) at 24 h of 77.3 ± 2.12 µM. The same compound showed a 50% inhibitory concentration (IC50) in series [3] of at least 100 µM. In addition, the IC50 in series [4] was at least 100 µM. The same compound gave an IC50 in series [5] of 92.4 ± 1.4 µM.

The compound `ONc1cc(C(F)(F)F)ccc1-n1nnc2ccccc21` [8b, N-(2-(1H-benzotriazol-1-yl)-5-(trifluoromethyl)phenyl)hydroxylamine] displayed a melting point of 151 to 154 °C.

Turning to `O=[N+]([O-])c1cc(C(F)(F)F)ccc1-n1nnc2ccccc21` [3c, 1-[2-Nitro-4-(trifluoromethyl)phenyl]-1H-benzotriazole], the melting point is 133 to 136 °C. Further, the IC50 in series [1] is at least 100 µM. Also, in series [2], the IC50 at 24 h is at least 100 µM. The IC50 in series [3] is at least 100 µM. In addition, the IC50 in series [4] was at least 100 µM. For the same compound, the half-inhibitory concentration (IC50) in series [5] was at least 100 µM.

The compound `O=[N+]([O-])c1cc(Cl)ccc1-n1cnc2ccccc21` [3b, 1-(4-Chloro-2-nitrophenyl)-1H-benzimidazole] came in with a melting point of 102 to 105 °C. For the same compound, the half-inhibitory concentration (IC50) in series [1] is at least 100 µM. Moreover, the IC50 at 24 h in series [2] was at least 100 µM. Besides, the IC50 in series [3] was at least 100 µM. Further, the IC50 in series [4] was at least 100 µM. Further, the IC50 in series [5] is at least 100 µM.

With `O=[N+]([O-])c1cc(C(F)(F)F)ccc1Nc1cc(C(F)(F)F)ccc1-n1nnc2ccccc21` [5b, N-[2-(1H-benzotriazol-1-yl)-5-(trifluoromethyl)phenyl]-2-nitro-4-(trifluoromethyl)aniline], the melting point lay within 203 to 204 °C. The concentration for half-maximal inhibition (IC50) in series [1] is at least 100 µM. In series [2], this compound came in with an IC50 at 24 h of at least 100 µM. The IC50 in series [3] is at least 100 µM. In addition, the IC50 in series [4] was at least 100 µM. The IC50 in series [5] is at least 100 µM.

`CCOC(=O)c1ccc(-n2nnc3ccccc32)c([N+](=O)[O-])c1` [3d, Ethyl 4-(1H-benzotriazol-1-yl)-3-nitrobenzoate]: the melting point is 115 to 119 °C. The IC50 in series [1] is at least 100 µM. Further, the 50% inhibitory concentration (IC50) at 24 h in series [2] was at least 100 µM. The compound further registered an IC50 in series [3] of at least 100 µM. In series [4], this compound returned an IC50 of at least 100 µM. The 50% inhibitory concentration (IC50) in series [5] is at least 100 µM.

`FC(F)(F)c1ccc2c(c1)ncn2-c1cc(Cl)ccc1-n1nnc2ccccc21` [7c, 1-{4-Chloro-2-[5-(trifluoromethyl)-1H-benzimidazol-1-yl]phenyl}-1H-benzotriazole] gave a melting point of 136 to 141 °C. The concentration for half-maximal inhibition (IC50) in series [1] is at least 100 µM. In addition, in series [2], the half-inhibitory concentration (IC50) at 24 h is 36.27 ± 0.14 µM. For the same compound, the IC50 in series [3] was at least 100 µM. For the same compound, in series [4], the 50% inhibitory concentration (IC50) is at least 100 µM. Also, the 50% inhibitory concentration (IC50) in series [5] worked out at 45.12 ± 0.22 µM.

For the compound `CCOC(=O)c1ccc(-n2nnc3ccccc32)c(N)c1` [4d, Ethyl 3-amino-4-(1H-benzotriazol-1-yl)benzoate], the melting point lay in the range of 132 to 136 °C. In series [1], the IC50 was at least 100 µM. Besides, the IC50 at 24 h in series [2] is at least 100 µM. In addition, the half-maximal inhibitory concentration (IC50) in series [3] was at least 100 µM. In addition, the IC50 in series [4] was at least 100 µM. The half-inhibitory concentration (IC50) in series [5] was at least 100 µM.

As for `CCOC(=O)c1ccc(Nc2cc(C(F)(F)F)ccc2-n2nnc3ccccc32)c([N+](=O)[O-])c1` [5c, Ethyl 4-[2-(1H-benzotriazol-1-yl)-5-(trifluoromethyl)anilino]-3-nitrobenzoate], the melting point lay within 192 to 196 °C. The 50% inhibitory concentration (IC50) in series [1] is at least 100 µM. This compound registered an IC50 at 24 h in series [2] of at least 100 µM. In series [3], this compound gave a half-inhibitory concentration (IC50) of at least 100 µM. Further, in series [4], the 50% inhibitory concentration (IC50) was at least 100 µM. The same compound registered an IC50 in series [5] of at least 100 µM.

`ONc1cc(C(F)(F)F)ccc1-n1cnc2ccccc21` [8a, N-(2-(1H-benzimidazol-1-yl)-5-(trifluoromethyl)phenyl)hydroxylamine]: the melting point lay within 153 to 156 °C.

`Nc1cc(Cl)ccc1-n1cnc2ccccc21` [4b, 2-(1H-benzimidazol-1-yl)-5-chloroaniline] came in with a melting point of 192 to 195 °C. Further, the IC50 in series [1] was at least 100 µM. In series [2], this compound came in with an IC50 at 24 h of at least 100 µM. In series [3], this compound had a 50% inhibitory concentration (IC50) of at least 100 µM. This compound yielded a concentration for half-maximal inhibition (IC50) in series [4] of at least 100 µM. Further, in series [5], the IC50 was at least 100 µM.

`Nc1cc(C(F)(F)F)ccc1-n1cnc2ccccc21` [4a, 2-(1H-benzimidazol-1-yl)-5-(trifluoromethyl)aniline] had a melting point of 209 to 210 °C. Besides, in series [1], the IC50 came to 66.75 ± 0.41 µM. Further, in series [2], the IC50 at 24 h is 82.89 ± 0.46 µM. Half-maximal inhibition in series [3] (IC50) was put at 67.17 ± 0.12 µM. Further, the 50% inhibitory concentration (IC50) in series [4] stood at 84.03 ± 0.38 µM. In series [5], this compound came in with a half-inhibitory concentration (IC50) of 65.26 ± 0.07 µM.

`CCOC(=O)c1ccc2c(c1)ncn2-c1cc(C(F)(F)F)ccc1-n1nnc2ccccc21` [7b, Ethyl 1-[2-(1H-benzotriazol-1-yl)-5-(trifluoromethyl)phenyl]-1H-benzimidazole-5-carboxylate] registered a melting point of 100 to 104 °C. Further, the half-maximal inhibitory concentration (IC50) in series [1] was at least 100 µM. The same compound showed a half-maximal inhibitory concentration (IC50) at 24 h in series [2] of at least 100 µM. In series [3], the half-inhibitory concentration (IC50) is at least 100 µM. The compound further had a half-inhibitory concentration (IC50) in series [4] of at least 100 µM. In series [5], this compound showed a 50% inhibitory concentration (IC50) of at least 100 µM.
